Results from patent publication US7109225B2, “Substituted oxazole derivatives” (Hofmann-la Roche Inc., priority 2002, dated 2006).

melting point | SMILES
94 to 95 °C | CCOC(Cc1ccc(OCCCc2nc(C(C)(C)C)oc2CC)c2ccsc12)C(=O)O (racemic) [Example 53, [rac]-3-{4-[3-(2-tert-Butyl-5-ethyl-oxazol-4-yl)-propoxy]-benzo[b]thiophen-7-yl}-2-ethoxy-propionic acid]
104 to 106 °C | CCOC(Cc1cc(C)c(OCCc2nc(C(C)(C)C)oc2C)c(C)c1)C(=O)O (centres unmarked) [Example 16, 3-{4-[2-(2-tert-Butyl-5-methyl-oxazol-4-yl)-ethoxy]-3,5-dimethyl-phenyl}-2-ethoxy-propionic acid]
125 to 126 °C | CCOC(Cc1ccc(OCCCc2nc(C(C)(C)C)oc2C)c2ccsc12)C(=O)O (racemic) [Example 54, [rac]-3-{4-[3-(2-tert-Butyl-5-methyl-oxazol-4-yl)-propoxy]-benzo[b]thiophen-7-yl}-2-ethoxy-propionic acid]
113 to 117 °C | CCOC(Cc1ccc(OCCCc2nc(CC)oc2C)c2ccccc12)C(=O)O (racemic) [Example 65, [rac]-2-Ethoxy-3-{4-[3-(2-ethyl-5-methyl-oxazol-4-yl)-propoxy]-naphthalen-1-yl}-propionic acid]
54 to 56 °C | CCOC(Cc1ccc(OCCCc2nc(C(CC)CC)oc2C)c2ccsc12)C(=O)O (racemic) [Example 67, [rac]-2-Ethoxy-3-(4-{3-[2-(1-ethyl-propyl)-5-methyl-oxazol-4-yl]-propoxy}-benzo[b]thiophen-7-yl)-propionic acid]

More lines, now with the values behind:

SMILES | melting point
CCCOC(Cc1ccc(OCCc2nc(C(C)(C)C)oc2C)c2ccccc12)C(=O)O (centres unmarked) [Example 14, 3-{4-[2-(2-tert-Butyl-5-methyl-oxazol-4-yl)-ethoxy]-naphthalen-1-yl}-2-propoxy-propionic acid] | 135 to 137 °C
CCCOC(Cc1ccc(OCc2nc(C(C)(C)C)oc2C)c2ccccc12)C(=O)O (centres unmarked) [Example 24, 3-[4-(2-tert-Butyl-5-methyl-oxazol-4-ylmethoxy)-naphthalen-1-yl]-2-propoxy-propionic acid] | 169 to 170 °C
CCCOC(Cc1ccc(OCCCc2nc(C(C)(C)C)oc2C)c2ccccc12)C(=O)O (racemic) [Example 57, [rac]-3-{4-[3-(2-tert-Butyl-5-methyl-oxazol-4-yl)-propoxy]-naphthalen-1-yl}-2-propoxy-propionic acid] | 140 to 141 °C
Cc1oc(C(C)C)nc1CCCOc1ccc(CC(OC(C)C)C(=O)O)c2sccc12 (racemic) [Example 62, [rac]-2-Isopropoxy-3-{4-[3-(2-isopropyl-5-methyl-oxazol-4-yl)-propoxy]-benzo[b]thiophen-7-yl}-propionic acid] | 125 to 126 °C
Cc1oc(C2CC2)nc1COc1ccc(CC(OC(C)C)C(=O)O)c2ccccc12 (centres unmarked) [Example 40, 3-[4-(2-Cyclopropyl-5-methyl-oxazol-4-ylmethoxy)-naphthalen-1-yl]-2-isopropoxy-propionic acid] | 129 to 130 °C
CCO[C@@H](Cc1ccc(OCCc2nc(C(C)(C)C)oc2C)c2ccsc12)C(=O)O [Example 6, (S)-3-{4-[2-(2-tert-Butyl-5-methyl-oxazol-4-yl)-ethoxy]-benzo[b]thiophen-7-yl}-2-ethoxy-propionic acid] | 155 to 156 °C
CCOC(Cc1ccc(OCCCc2nc(C(C)(C)C)oc2C)c2ccccc12)C(=O)O (racemic) [Example 56, [rac]-3-{4-[3-(2-tert-Butyl-5-methyl-oxazol-4-yl)-propoxy]-naphthalen-1-yl}-2-ethoxy-propionic acid] | 138 to 140 °C
CCCOC(Cc1ccc(OCCc2nc(C3CCCCC3)oc2C)c2ccccc12)C(=O)O (centres unmarked) [Example 28, 3-{4-[2-(2-Cyclohexyl-5-methyl-oxazol-4-yl)-ethoxy]-naphthalen-1-yl}-2-propoxy-propionic acid] | 106 to 107 °C
Cc1oc(C(C)(C)C)nc1CCCOc1ccc(CC(OC(C)C)C(=O)O)c2ccccc12 (racemic) [Example 55, [rac]-3-{4-[3-(2-tert-Butyl-5-methyl-oxazol-4-yl)-propoxy]-naphthalen-1-yl}-2-isopropoxy-propionic acid] | 118 to 119 °C
